Laboratory results as given in patent US20140199372A1, “MICROBIAL GROWTH FACTORS” (NORTHEASTERN UNIVERSITY, priority 2011, published 2014).
Like-named read-outs stand apart in the source and are kept apart here.

Columns and labels:
KLE1280 = test: Induction of growth of KLE1280 by quinones on plates; assay type: cell-based, Porphyromonas sp. KLE1280
Procedure: Serial dilutions of dental plaque from a healthy individual were spread onto Fastidious Anaerobe Agar plates containing 5% sheep blood and 5% pooled human saliva (FBS) and incubated anaerobically. Small colonies growing next to large ones on dense plates were picked and spread onto fresh FBS plates. A helper mix of colonies growing around individual small colonies was spotted on these plates. Isolates were identified that depended for growth on this mix. If E. coli produces a growth factor, its identification can be efficiently performed, since a complete knockout library of this species is available. Testing knockout mutants identifies those that lost their ability to help growth of the uncultured organism, which then leads to the identification of the biosynthetic pathway of the growth factor. […] This organism is closely related to Porphyromonas sp. oral taxon 279 (99% similarity by 16S rRNA gene sequencing) (96% similarity to closest type strain Porphyromonas catoniae). In particular, KLE1280 is closely related to Porphyromonas catoniae (96% similarity by 16S rRNA gene sequencing). […] This deletion mutant has the menaquinone biosynthesis genes deleted. […] 5 genes in the menaquinone biosynthesis pathway are knocked out in this mutant (http://www.shigen.nig.ac.jp/ecoli/pec/quickSearch.List.DeletionsDetailAction.do?fromListFlag=true&classId=4&deId=226). E. coli strains with single gene deletions in the menaquinone biosynthesis pathway were tested for induction of growth.
Different quinones (Q), commercially available and/or isolated from E. coli and Micrococcus luteus were tested for induction of growth of KLE1280.
Different concentrations of MK4 were spotted on media with and without blood (5%) or hemin (10 μg/ml) or hemoglobin (100 μg/ml).

Flaviramulus sp. KLE1215 = test: Growth of KLE1215 in liquid culture with quinones delivered in liposomes; assay type: cell-based; settings: R2A broth, 50% artificial sea salts, 0.001% Fe(II), MK4 250 μM to 1.5 mM, MK6 and MK6 chromenols purified from KLE1215
Procedure: The growth of Flaviramulus sp. KLE1215 is enhanced by the addition of purified quinone-like compounds when they are delivered in liposomes. […] Growth of KLE1215 induced with varying concentrations of MK4 delivered in liposomes. 5 ml liquid cultures of KLE1215 were set up with no supplement (squares), empty liposomes as liposome control (triangles), liposomes loaded with 250 μM MK4 (cross), liposomes loaded with 500 μM MK4 liposomes (asterisk), liposomes loaded with 750 μM MK4 (circle), liposomes loaded with 1 mM MK4 (vertical line), liposomes loaded with 1.25 mM MK4 (dark line), and liposomes loaded with 1.5 mM MK4 (light line) is shown in FIG. 8. […] broth (without yeast extract) with 50% artificial sea salts supplemented with 0.001% Fe(II) was used for these cultures. Values represent the average of two independent cultures of KLE1215 in […] broth with 50% artificial sea salts supplemented with 0.001% Fe(II). […] 5 ml liquid cultures of KLE1215 were prepared with nothing added (squares), empty liposome as liposome control (triangles), liposomes loaded with MK6 from KLE1215 (cross), and liposomes loaded with MK6 chromenols from KLE1215 (asterisk). R2A broth (without yeast extract) with 50% artificial sea salts supplemented with 0.001% Fe(II) was used for these cultures. Values represent the average of independent cultures of KLE1215 in […] broth with 50% artificial sea salts supplemented with 0.001% Fe(II).

Bizinio sp. KLE1402 = test: Growth of KLE1402 in liquid culture with quinone-loaded liposomes; assay type: cell-based; settings: delivered by liposomes loaded with 500 μM MK4; R2A broth, 50% sea salts, 0.001% Fe(II)
Description: Two isolates were streaked for isolation; the culturable helper on the left induces the growth of unculturable KLE1402 on the right only when it is close proximity. The closest relative to the dependent KLE1402 is Bizionia echini (96.6% Identity according to 16S rRNA gene sequence), from the family Flavobacteriaceae. The closest relative to the helper KLE1403 is Ruegeria lacuscaerulensis (98.4% identity by 16S rRNA gene sequence), from the class Alphaproteobacteria. E. coli induces the growth of KLE1402 (FIG. 11). KLE1402 spread evenly on R2A with 50% artificial sea salts and 0.001% Fe(II) with a dense spot of E. coli. […] KLE1402 spread evenly on R2A with 50% artificial sea salts and 0.001% Fe(II) with a dense spot of E. coli ΔubiG. KLE1402 grows with the addition of quinone-loaded liposomes (FIG. 13). Cells of KLE1402 were used to inoculate culture tubes with 5 ml R2A broth with 50% sea salts and 0.001% Fe(II). Tube A: no supplement, Tube B: Empty liposomes added, Tube C: Liposomes loaded with 500 μM MK4 added. KLE1402 grows with the addition of quinone-loaded liposomes (FIG. 14). 5 ml liquid cultures of KLE1402 were set up with no supplement (squares), empty liposomes as liposome control (triangles), liposomes loaded with 500 μM MK4 (cross). R2A broth with 50% artificial sea salts supplemented with 0.001% Fe(II) was used as media for these cultures. […]

[1] = quinone isolated from M. luteus

## COC1=C(OC)C(=O)C(C/C=C(\C)CCC=C(C)C)=C(C)C1=O [Q2]
KLE1280; quinone commercially available
  Results: induction of growth of KLE1280: No induction

## O=C(O)c1cc(O)c2ccccc2c1O [DHNA, 1,4-dihydroxy-2-naphthoate]
KLE1280
  induction of growth of KLE1280: showed induction of growth

## COC1=C(OC)C(=O)C(C/C=C(\C)CC/C=C(\C)CC/C=C(\C)CC/C=C(\C)CC/C=C(\C)CC/C=C(\C)CC/C=C(\C)CC/C=C(\C)CCC=C(C)C)=C(C)C1=O [Q9]
KLE1280; quinone commercially available
  Results: induction of growth of KLE1280: No induction

## COC1=C(OC)C(=O)C(C/C=C(\C)CC/C=C(\C)CC/C=C(\C)CC/C=C(\C)CC/C=C(\C)CC/C=C(\C)CC/C=C(\C)CC/C=C(\C)CC/C=C(\C)CCC=C(C)C)=C(C)C1=O [Q10]
KLE1280; quinone commercially available
  Results: induction of growth of KLE1280: No induction

## CC(C)=CCC/C(C)=C/CC/C(C)=C/CC/C(C)=C/CC/C(C)=C/CC/C(C)=C/CC/C(C)=C/CC1=C(C)C(=O)c2ccccc2C1=O [Menaquinone7]
KLE1280; [1]
  Results: induction of growth of KLE1280: Very less induction (late)

## COC1=C(OC)C(=O)C(C/C=C(\C)CC/C=C(\C)CC/C=C(\C)CC/C=C(\C)CC/C=C(\C)CC/C=C(\C)CCC=C(C)C)=C(C)C1=O [Ubiquinone7]
KLE1280; quinone isolated from E. coli
  Results: induction of growth of KLE1280: No induction

## hemoglobin
KLE1280; substance alone
  induction of growth of KLE1280: did not induce growth

## COC1=C(OC)C(=O)C(CC=C(C)C)=C(C)C1=O [Q1]
KLE1280; quinone commercially available
  Results: induction of growth of KLE1280: No induction

## CC(C)=CCC/C(C)=C/CC/C(C)=C/CC/C(C)=C/CC/C(C)=C/CC/C(C)=C/CC/C(C)=C/CC/C(C)=C/CC1=C(C)C(=O)c2ccccc2C1=O [Menaquinone8]
KLE1280; quinone isolated from E. coli
  Results: induction of growth of KLE1280: No induction
KLE1280; [1]
  Results: induction of growth of KLE1280: Very less induction (late)

## CC(C)=CCC/C(C)=C/CC/C(C)=C/CC/C(C)=C/CC/C(C)=C/CC/C(C)=C/CC1=C(C)C(=O)c2ccccc2C1=O [Menaquinone6]
Flaviramulus sp. KLE1215
  growth of KLE1215: growth-enhancing effects
KLE1280; [1]
  Results: induction of growth of KLE1280: Induction

## hemin
KLE1280; substance alone
  induction of growth of KLE1280: did not induce growth

## COC1=C(OC)C(=O)C(C/C=C(\C)CC/C=C(\C)CC/C=C(\C)CC/C=C(\C)CC/C=C(\C)CC/C=C(\C)CC/C=C(\C)CCC=C(C)C)=C(C)C1=O [Ubiquinone8]
KLE1280; quinone isolated from E. coli
  Results: induction of growth of KLE1280: No induction

## menachromenal 6 [MK6 chromenols]
Flaviramulus sp. KLE1215
  growth of KLE1215: growth-enhancing effects

## COC1C(=O)C(C)=C(C/C=C(\C)CC/C=C(\C)CC/C=C(\C)CCC=C(C)C)C(=O)C1OC (stereo not drawn) [Q4]
KLE1280; quinone commercially available
  Results: induction of growth of KLE1280: No induction

## CC(C)=CCC/C(C)=C/CC/C(C)=C/CC/C(C)=C/CC/C(C)=C/CC1=C(C)C(=O)c2ccccc2C1=O [Menaquinone5]
KLE1280; [1]
  Results: induction of growth of KLE1280: Induction

## CC(C)=CCC/C(C)=C/CC/C(C)=C/CC/C(C)=C/CC1=C(C)C(=O)c2ccccc2C1=O [Menaquinone4]
Bizinio sp. KLE1402
  growth of KLE1402: can induce the growth
Flaviramulus sp. KLE1215
  growth of KLE1215: growth-enhancing effects
KLE1280
  induction of growth of KLE1280: induced growth
KLE1280; quinone commercially available
  Results: induction of growth of KLE1280: Induction
KLE1280; [1]
  Results: induction of growth of KLE1280: Induction
KLE1280; spotted on media with blood (5%) or hemin (10 μg/ml) or hemoglobin (100 μg/ml)
  induction of growth of KLE1280: induced growth only in the presence of either of these 3 in the medium
KLE1280; substance alone
  induction of growth of KLE1280: did not induce growth
